In the experiment the test system is lesions of the white matter of the brain produced by intracerebral injection of ibotenate. In words: Neuroprotective effects on ibotenate-induced white matter lesions in 5-day-old baby mice. It counts as in vivo. On the procedure:
Immediately after the administration of 10 μg of ibotenate, there are injected by the i.p. route, in a final volume of 5 μl, from 0.005 to 5 mg/kg of agomelatine, 10 mg/kg of fluoxetine used as standard antidepressant control, or the solvent alone. In a second experiment, the i.p. injection following the intracerebral injection of ibotenate is carried out 2 hours, 4 hours or 8 hours later.

In the case of `COc1ccc2cccc(CCNC(C)=O)c2c1` [agomelatine, N-[2-(7-methoxy-1-naphthyl)ethyl]acetamide], the “reduction of the lesions of the white matter” value (5 mg/kg i.p., co-administration immediately after 10 μg ibotenate intracerebral, 5-day-old mice) was determined as 59%. Besides, the “effect on the lesions of the white matter (dose dependence)” value (0.005 to 5 mg/kg i.p., co-administration immediately after 10 μg ibotenate) was “dose-dependent reduction of the lesions of the white matter”. In addition, the “course of lesion size over time” value (co-treated concomitantly or after 8 hours, same lesions for first 24 hours, then over the next 4 days) was “very major regression”. Moreover, the “neuroprotection with delayed administration” value reads like this: (i.p. administration 8 hours after the injection of ibotenate) “significant neuroprotection is restored”; (i.p. administration between 0 and 4 hours after the injection of ibotenate) “decreases”.
Consider `CNCCC(Oc1ccc(C(F)(F)F)cc1)c1ccccc1` (stereo not drawn) [fluoxetine, reference compound], for which the “effect on the lesions of the white matter” value (10 mg/kg i.p., co-administration immediately after 10 μg ibotenate) was “No significant effect”.

(Values after US20080125493A1, “Use of agomelatine in obtaining medicaments intended for the treatment of periventricular leukomalacia” (LES LABORATOIRES SERVIER, priority 2006, published 2008).)
